Measured values published in ChEMBL document CHEMBL2406925, “Confirmation of quinolone-induced formation of gyrase-DNA conjugates using AFM” (Bioorg Med Chem Lett, 2013).
The source made the active and inactive calls. The calls are words filed in the database; no cut-off is given here.

Experiments:
Escherichia coli [1] = test: Stabilization of reversible Escherichia coli DNA gyrase-pBR322 DNA complex at 20 uM after 15 mins by AFM image analysis
Escherichia coli [2] = test: Induction of Escherichia coli DNA gyrase-mediated pBR322 DNA cleavage at 5 to 20 uM after 30 mins by agarose gel electrophoresis

CCn1cc(C(=O)O)c(=O)c2cc(F)c(N3CCNCC3)cc21
Activity (Escherichia coli [1]): Active
Activity (Escherichia coli [2]): Active
